Values of other authors, collected in US20030143247A1, “Antiviral compositions and methods for identification and use” (priority 2002, published 2003).

How the values were obtained:
[1] = test system: HIV viral RNA region within the Rev-binding site; details: Zapp et al., Cell 74, 1993
[2] = human, in vivo
HCV = details: various clinical trials

NC[C@@H]1O[C@H](O[C@H]2[C@@H](O)[C@H](O[C@@H]3[C@@H](O)[C@H](N)C[C@H](N)[C@H]3O[C@H]3O[C@H](CN)[C@@H](O)[C@H](O)[C@H]3N)O[C@@H]2CO)[C@H](N)[C@@H](O)[C@@H]1O [neomycin B]
effect on Rev protein binding to HIV viral RNA [1]: blocks Rev protein binding

NC(=O)c1ncn([C@@H]2O[C@H](CO)[C@@H](O)[C@H]2O)n1 [ribavirin, 1-β-D-ribo-furanosyl-1,2,4-trizole-3-carboxamide]
side effect [2]: can cause hemolytic anemia

IFN-α
patients who initially responded to the therapy (HCV; patients treated with IFN-α): approximately 40% | initial responders who relapsed after the treatment ended (HCV; share of the initial responders): 70%
